# Test results as given in patent US20130071495A1, “INHIBITORS OF GLYCOGEN SYNTHASE KINASE 3 FOR USE IN THERAPEUTIC METHODS AND SCREENING METHOD RELATING THERETO” (Helmholtz Zentrum Muenchen Deutsches Forschungszentrum fuer …, priority 2010, published 2013).
# Columns and labels:
# Type in all cases: in vivo, C57BL/6N mice
# [1] = system: elastase-induced emphysema model (mice); assay: Immunoblotting and densitometry of SP-C in lung homogenates, elastase-induced emphysema; details: preventive approach, LiCl 200 mg/kg/day i.p. day 0-7; vehicle 0.36±0.06; p=0.0231
# Protocol: (§1) Six- to eight-week-old pathogen-free female C57BL/6N mice (Charles River Laboratories) were used throughout this study. All experiments were performed in accordance with the guidelines of the Ethics Committee of the University of Giessen School of Medicine and approved by the Regierungspräsidium Giessen, Hesse, Germany. Mice had free access to water and rodent laboratory chow. Pancreatic elastase was dissolved in sterile PBS and applied orotracheally (100 U/kg BW). Control mice received 80 μl sterile PBS. Lung tissues were excised and snap-frozen or inflated with 4% (m/v) paraformaldehyde in PBS (PAA Laboratories) at 21 cm H2O pressure for histological analyses.
# (§2) The WNT/β-catenin signaling pathway in lungs from C57BL/6N mice was activated via intraperitoneal injection of lithium chloride (200 mg/KG/BW/day) (22). Lithium chloride mimics members of the WNT family of signalling proteins by inhibiting the activity of GSK-3β and thus causes intracellular accumulation of β-catenin, a feature associated with the canonical WNT/β-catenin signalling pathway (23). Under these circumstances, β-catenin can enter the nucleus and influence the expression of target genes. Lithium chloride was diluted in sterile water and fresh stock was prepared for every injection. […]
# [2] = system: elastase-induced emphysema model (mice); assay: qRT-PCR of ECM and alveolar epithelial cell markers in lungs, elastase-induced emphysema; details: preventive approach, day 7
# Protocol: as §1
# (§3) The WNT/β-catenin signaling pathway in lungs from C57BL/6N mice was activated via intraperitoneal injection of lithium chloride (200 mg/KG/BW/day) (22). Lithium chloride mimics members of the WNT family of signalling proteins by inhibiting the activity of GSK-3β and thus causes intracellular accumulation of β-catenin, a feature associated with the canonical WNT/β-catenin signalling pathway (23). Under these circumstances, β-catenin can enter the nucleus and influence the expression of target genes. Lithium chloride was diluted in sterile water and fresh stock was prepared for every injection. Mice were treated on a daily basis, from day 0, the day of elastase subjection to day 7 in the preventive regime, and from day 7 to 14 in the therapeutic regime, respectively. The following scheme illustrates preventive and therapeutic activation of WNT/β-catenin signaling in experimental emphysema:
# (§4) Mice were subjected to a single orotracheal application of elastase, which led to the development of pulmonary emphysema from day 1 to 14. WNT/β-catenin activation by treatment with lithium chloride (LiCl) was initiated on day of elastase subjection to day 7 (referred to as preventive approach), or from day 7 to day 14 (referred to as therapeutic approach), using the indicated concentrations (daily application intraperitonal (i.p.), n=6 for each group).
# Total RNA was extracted using Qiagen extraction kits according to the manufacturer's protocol, and cDNAs were generated by reverse transcription using SuperScript™ II (Invitrogen). Quantitative (q)RT-PCR was performed using fluorogenic SYBR Green and the Sequence Detection System Fast 7500 (PE Applied Biosystems). HPRT1 and PBGD, ubiquitously and equally expressed genes free of pseudogenes, were used as a reference gene in all human and mouse qRT-PCR reactions, respectively. PCR was performed using the primers listed in Table 1 and 2, respectively, at a final concentration of 200 nM. Relative transcript abundance of a gene is expressed in ΔCt values (ΔCt=ct^reference−Ct^target). Relative changes in transcript levels compared to controls are ΔΔCt values (ΔΔCt=ΔCt^treated−ΔCt^control). All ΔΔCt values correspond approximately to the binary logarithm of the fold change as mentioned in the text. When relative transcript abundance is of information, expression levels are given in ΔCt levels.
# [3] = system: elastase-induced emphysema model (mice); assay: Quantitative morphometry of lung structure in elastase-induced emphysema
# Protocol: as §1
# The WNT/β-catenin signaling pathway in lungs from C57BL/6N mice was activated via intraperitoneal injection of lithium chloride (200 mg/KG/BW/day) (22). […]
# To assess air space enlargement, the mean chord length (MCL) was quantified by superimposing a line grid on the images of lung sections at a magnification of 200×. Points on the lines of the grid hitting the air spaces, and intercepts of the lines with alveolar septa were counted to calculate MCL according to the formula: MCL=ΣPair×L(p)/(Isepta/2) (μm), where ΣPair is the sum of the points of the grid overlaid air spaces, L(p) is the line length per point and Isepta is the sum of the intercepts of alveolar septa with the lines of the grid. For the morphometric assessment of alveolar surface area per unit volume of lung parenchyma (Sv) were determined by counting the number of points that fell on alveolar septal tissue and alveolar space, and by counting the number of intercepts with alveolar septal surface at a magnification of 200× according to the following formulas: Sv=2×Isepta/(ΣPpar×L(p)/3) (1 μm), where ΣPpar is the sum of the points of hitting parenchyma, L(p) is the line length per test point in μm, and Isepta the sum of the intercepts with alveolar septa.
# [4] = system: elastase-induced emphysema model (mice); assay: Collagen assay (Sircol) in whole-lung homogenates, elastase-induced emphysema; details: preventive approach, LiCl 200 mg/kg/day i.p. day 0-7; vehicle 29.6±4.1; p=0.042
# Protocol: as §1
# as §2, with “(23).” for “(23). Under these circumstances, β-catenin can enter the nucleus and influence the expression of target genes. Lithium chloride was diluted in sterile water and fresh stock was prepared for every injection.”
# Whole-mouse lung homogenates were used for in vivo analysis. Total collagen content was determined using the Sircol Collagen Assay kit (Biocolor). […] Samples and collagen standards were then read at 540 nm in a spectrophotometer (Bio-Rad). Collagen concentrations were calculated using a standard curve with acid-soluble type I collagen.
# [5] = system: elastase-induced emphysema model (mice); assay: Histological and immunohistochemical assessment of lung sections, elastase-induced emphysema
# Protocol: as §1, §3
# as §4, with “group). […]” for “group).”
smiles,measurement,setting,value
"[Cl-].[Li+] [LiCl, Lithium chloride]",SP-C protein expression (immunoblot densitometry),[1],0.62±0.05
same,"cadherin 1 (cdh1) mRNA, log-fold change LiCl-treated versus untreated lungs",[2]; p=0.003,0.97±0.20
same,"aquaporin 5 (aqp5) mRNA, log-fold change LiCl-treated versus untreated lungs",[2]; p=0.025,0.63±0.18
same,"thyroid transcription factor 1 (ttf1) mRNA, log-fold change LiCl-treated versus untreated lungs",[2]; p=0.033,1.20±0.30
same,"SP-C mRNA, log-fold change LiCl-treated versus untreated lungs",[2]; p=0.0475,−1.21±0.42
same,"mRNA of type I collagen α1 (col1a1), log-fold change LiCl-treated versus untreated lungs",[2]; p=0.0496,−0.86±0.33
same,"forkhead box P2 (foxp2) mRNA, log-fold change LiCl-treated versus untreated lungs",[2]; p=0.146,1.38±0.59
same,mean chord length,"[3]; preventive approach, LiCl 200 mg/kg/day i.p. day 0-7, vehicle 109.9±7.8, p=0.0021",74.0±6.6 μm
same,surface area,"[3]; preventive approach, LiCl 200 mg/kg/day i.p. day 0-7, vehicle 317.8±27.5, p=0.0067",560.7±55.7 cm^2
same,mean chord length,"[3]; therapeutic approach, LiCl 200 mg/kg/day i.p. day 7-14, vehicle 106.4±2.3, p=0.021",85.3±2.5
same,total collagen content in lung homogenates,[4],16.1 µg/mL
same,"immunohistochemical staining for SP-C, WNT3a and β-catenin","[5]; preventive approach, compared with vehicle-treated mice",increased appearance of SP-C-positive cells with enhanced staining of the WNT/β-catenin signaling component WNT3a as well as nuclear β-catenin staining
same,histological assessment of the lung structure,"[5]; preventive approach, day 0-7, H&E staining",marked attenuated emphysematous changes
same,histological assessment of the lung structure,"[5]; therapeutic approach, day 7-14, H&E staining",marked attenuation of emphysema along with restored lung architecture
